Where a SMILES comes first, the peptide text is derived from it. [ ]: non-standard residue; d: D form. The star is where a group is joined. NHCH2CH2OH = OCCN*; For = O=C*
Columns and labels:
[1] = H+/Na+ transport assay of bead-derived peptides (one-point); format: biochemical; parameters: key: relative activity; mean of two control wells = 1.00; conditions: bead-derived peptide solution, EYPC/EYPG LUVs;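 note: relative to parent gramicidin A activity set to 1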
Outline: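 Pyranine (1.0 mM)-loaded LUVs containing egg yolk phosphatidylglycerol were prepared by film hydration, sonication and extrusion, then mixed with diluted bead-derived peptide in 96-well format and vortexed 30 min at room temperature. Fluorescence was normalized between untreated LUVs (0%) and Triton X-100 lysis (100%).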

[2] = system: P388 mouse leukemia cells; conditions: 92 h
Outline: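 First, library peptide stocks are diluted 250-fold in RPMI1640 with 10% heat-inactivated FBS. Next, they are mixed with P388 cells to give 1 × 10^4 cells/mL and incubated 92 h at 37 °C, 5% CO2. Finally, viability (%) is scored by WST-1 absorbance at 415 nm.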

[3] = system: Streptococcus pyogenes SSI-9; experiment: Antibacterial activity assay of bead-derived peptides (three concentrations); format: cell-based; parameters: key: +++: inhibition by the 640-fold diluted peptide solution; ++: inhibition by the 160-fold diluted solution; +: inhibition by the 40-fold diluted solution; -: no inhibition; conditions: S. pyogenes, bead-derived peptide solution, three concentrations
Outline: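 Bead-derived library peptide stocks in DMSO were tested undiluted and after 4- and 16-fold DMSO dilution against S. pyogenes SSI-9 (2 × 10^5 CFU/well) in cation-adjusted Mueller Hinton Broth with 5% laked horse blood. After 18 h at 37 °C, wells were scored for precipitation of grown cells.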

In the case of `CC(C)C[C@@H](NC(=O)[C@H](C)NC(=O)CNC(=O)[C@@H](NC=O)C(C)C)C(=O)N[C@@H](C)C(=O)N[C@H](CC(C)C)C(=O)N[C@H](C(=O)N[C@@H](C(=O)N[C@@H](Cc1c[nH]c2ccccc12)C(=O)N[C@@H](C(=O)N[C@@H](Cc1c[nH]c2ccccc12)C(=O)N[C@@H](C(=O)N[C@@H](Cc1c[nH]c2ccccc12)C(=O)N[C@H](CC(C)C)C(=O)N[C@@H](Cc1c[nH]c2ccccc12)C(=O)NCCO)C(C)C)[C@H](C)O)C(C)C)C(C)C` [compound 12081] (For-VGA[dL]A[dL]V[dV]W[dT]W[dV]W[dL]W-NHCH2CH2OH), the “H+/Na+ transport activity normalized against the value of 1 (1.00)” value (“H+/Na+ transport activity normalized” for short) [1] is reported as 1.01, the cell viability/% [2] is reported as 100.0% and the antibacterial activity [3] is reported as “-”.

For `CC(C)C[C@@H](NC(=O)[C@H](C)NC(=O)[C@H](NC(=O)[C@H](C)NC(=O)CNC(=O)[C@@H](NC=O)C(C)C)C(C)C)C(=O)N[C@H](C(=O)N[C@H](CC(C)C)C(=O)N[C@@H](Cc1c[nH]c2ccccc12)C(=O)N[C@@H](C(=O)N[C@@H](Cc1c[nH]c2ccccc12)C(=O)N[C@@H](C(=O)N[C@@H](Cc1c[nH]c2ccccc12)C(=O)N[C@H](CC(C)C)C(=O)N[C@@H](Cc1c[nH]c2ccccc12)C(=O)NCCO)C(C)C)[C@H](C)O)C(C)C` [compound 7325] (For-VGA[dV]A[dL]V[dL]W[dT]W[dV]W[dL]W-NHCH2CH2OH), the “H+/Na+ transport activity normalized” value [1] was 1.04, the cell viability/% [2] was 82.2% and the antibacterial activity [3] was “-”.

In the case of `CNC(=O)C[C@@H](NC(=O)[C@H](Cc1c[nH]c2ccccc12)NC(=O)[C@@H](CC(C)C)NC(=O)[C@H](Cc1c[nH]c2ccccc12)NC(=O)[C@H](NC(=O)[C@H](Cc1c[nH]c2ccccc12)NC(=O)[C@@H](CC(C)C)NC(=O)[C@@H](NC(=O)[C@H](NC(=O)[C@H](C)NC(=O)[C@H](NC(=O)[C@H](C)NC(=O)CNC(=O)[C@@H](NC=O)C(C)C)C(C)C)C(C)C)C(C)C)C(C)C)C(=O)N[C@@H](Cc1c[nH]c2ccccc12)C(=O)NCCO` [compound 8400] (For-VGA[dV]A[dV]V[dL]W[dV]W[dL]W[dD](NHMe)W-NHCH2CH2OH), the “H+/Na+ transport activity normalized” value [1] is reported as 1.01, the cell viability/% [2] is reported as 34.4% and the antibacterial activity [3] is reported as “-”.

For `CC(C)C[C@@H](NC(=O)[C@H](C)NC(=O)[C@H](NC(=O)[C@H](C)NC(=O)CNC(=O)[C@@H](NC=O)C(C)C)[C@H](C)O)C(=O)N[C@H](C(=O)N[C@H](CC(C)C)C(=O)N[C@@H](Cc1c[nH]c2ccccc12)C(=O)N[C@@H](C(=O)N[C@@H](Cc1c[nH]c2ccccc12)C(=O)N[C@H](CC(C)C)C(=O)N[C@@H](Cc1c[nH]c2ccccc12)C(=O)N[C@@H](C(=O)N[C@@H](Cc1c[nH]c2ccccc12)C(=O)NCCO)C(C)C)[C@H](C)O)C(C)C` [compound 3437] (For-VGA[dT]A[dL]V[dL]W[dT]W[dL]W[dV]W-NHCH2CH2OH), the “H+/Na+ transport activity normalized” value [1] was 1.01, the cell viability/% [2] was 100.0% and the antibacterial activity [3] was “-”.

For `CNC(=O)C[C@@H](NC(=O)[C@@H](NC(=O)[C@@H](CC(C)C)NC(=O)[C@H](C)NC(=O)[C@@H](CC(C)C)NC(=O)[C@H](C)NC(=O)CNC(=O)[C@@H](NC=O)C(C)C)C(C)C)C(=O)N[C@@H](Cc1c[nH]c2ccccc12)C(=O)N[C@H](CC(C)C)C(=O)N[C@@H](Cc1c[nH]c2ccccc12)C(=O)N[C@H](CC(C)C)C(=O)N[C@@H](Cc1c[nH]c2ccccc12)C(=O)N[C@@H](C(=O)N[C@@H](Cc1c[nH]c2ccccc12)C(=O)NCCO)C(C)C` [compound 5491] (For-VGA[dL]A[dL]V[dD](NHMe)W[dL]W[dL]W[dV]W-NHCH2CH2OH), the “H+/Na+ transport activity normalized” value [1] was 1.24, the cell viability/% [2] was 100.0% and the antibacterial activity [3] was “-”.
